Measured values as given in the supplement of paper PMC10307832.

Columns and labels:
Test in all cases: relative viability (nuclei count vs DMSO), 5 days (fraction); higher = more cells survive
HCC-44 = tested on: HCC-44
In short: (§1)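 Relative viability divides the nuclei count in treated wells by that in vehicle wells. Lung cancer cell lines were seeded in 1536-well plates, dosed by pin tool the next day, and fixed and stained after 5 days in one step with final 0.05% Triton X-100, 1% formaldehyde and 1 ug/ml Hoechst. Dosing was a single drug or a fixed anchor-drug dose plus five library-drug doses (not always all listed) in √10 steps, and values are medians of duplicate plates imaged at 4×.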

NCI-H1650 = tested on: NCI-H1650
In short: as §1

NCI-H1944 = tested on: NCI-H1944
In short: as §1

PC-3 [JPC-3] = tested on: PC-3 [JPC-3]
In short: as §1

H3255 = tested on: H3255
In short: as §1

NCI-H23 = tested on: NCI-H23
In short: as §1

COR-L23 = tested on: COR-L23
In short: as §1

PC-14 = tested on: PC-14
In short: as §1

NCI-H2347 = tested on: NCI-H2347
In short: as §1

SW 900 = tested on: SW 900
In short: as §1

LK-2 = tested on: LK-2
In short: as §1

NCI-H838 = tested on: NCI-H838
In short: as §1

LU99A = tested on: LU99A
In short: as §1

NCI-H650 = tested on: NCI-H650
In short: as §1

NCI-H1563 = tested on: NCI-H1563
In short: as §1

SW 1573 = tested on: SW 1573
In short: as §1

LCLC-103H = tested on: LCLC-103H
In short: as §1

NCI-H460 = tested on: NCI-H460
In short: as §1

LCLC-97TM1 = tested on: LCLC-97TM1
In short: as §1

A-427 = tested on: A-427
In short: as §1

NCI-H1793 = tested on: NCI-H1793
In short: as §1

201T = tested on: 201T
In short: as §1

## NC(=O)Nc1cc(-c2cccc(F)c2)sc1C(=O)N[C@H]1CCCNC1 [AZD7762] + Nc1nc2[nH]cc(CCc3ccc(C(=O)N[C@@H](CCC(=O)O)C(=O)O)cc3)c2c(=O)[nH]1 [Pemetrexed] (partner 0.2 µM)
HCC-44; first compound 0.01 µM
  relative viability: 0.608
HCC-44; first compound 0.03162 µM
  relative viability: 0.548
HCC-44; first compound 0.1 µM
  relative viability: 0.534
HCC-44; first compound 0.3162 µM
  relative viability: 0.451
HCC-44; first compound 1 µM
  relative viability: 0.358
NCI-H1650; first compound 0.01 µM
  relative viability: 0.333
NCI-H1650; first compound 0.03162 µM
  relative viability: 0.331
NCI-H1650; first compound 0.1 µM
  relative viability: 0.296
NCI-H1650; first compound 0.3162 µM
  relative viability: 0.252
NCI-H1650; first compound 1 µM
  relative viability: 0.19
NCI-H1944; first compound 0.01 µM
  relative viability: 0.694
NCI-H1944; first compound 0.03162 µM
  relative viability: 0.601
NCI-H1944; first compound 0.1 µM
  relative viability: 0.54
NCI-H1944; first compound 0.3162 µM
  relative viability: 0.28
NCI-H1944; first compound 1 µM
  relative viability: 0.188
PC-3 [JPC-3]; first compound 0.01 µM
  relative viability: 0.626
PC-3 [JPC-3]; first compound 0.03162 µM
  relative viability: 1.08
PC-3 [JPC-3]; first compound 0.1 µM
  relative viability: 1.12
PC-3 [JPC-3]; first compound 0.3162 µM
  relative viability: 0.859
PC-3 [JPC-3]; first compound 1 µM
  relative viability: 0.688
H3255; first compound 0.01 µM
  relative viability: 0.549
H3255; first compound 0.03162 µM
  relative viability: 0.61
H3255; first compound 0.1 µM
  relative viability: 0.573
H3255; first compound 0.3162 µM
  relative viability: 0.531
H3255; first compound 1 µM
  relative viability: 0.477
NCI-H23; first compound 0.01 µM
  relative viability: 0.722
NCI-H23; first compound 0.03162 µM
  relative viability: 0.62
NCI-H23; first compound 0.1 µM
  relative viability: 0.514
NCI-H23; first compound 0.3162 µM
  relative viability: 0.359
NCI-H23; first compound 1 µM
  relative viability: 0.275
COR-L23; first compound 0.01 µM
  relative viability: 0.191
COR-L23; first compound 0.03162 µM
  relative viability: 0.185
COR-L23; first compound 0.1 µM
  relative viability: 0.181
COR-L23; first compound 0.3162 µM
  relative viability: 0.168
COR-L23; first compound 1 µM
  relative viability: 0.131
PC-14; first compound 0.01 µM
  relative viability: 0.133
PC-14; first compound 0.03162 µM
  relative viability: 0.0943
PC-14; first compound 0.1 µM
  relative viability: 0.0891
PC-14; first compound 0.3162 µM
  relative viability: 0.0706
PC-14; first compound 1 µM
  relative viability: 0.0517
NCI-H2347; first compound 0.01 µM
  relative viability: 0.448
NCI-H2347; first compound 0.03162 µM
  relative viability: 0.395
NCI-H2347; first compound 0.1 µM
  relative viability: 0.455
NCI-H2347; first compound 0.3162 µM
  relative viability: 0.403
NCI-H2347; first compound 1 µM
  relative viability: 0.329
SW 900; first compound 0.01 µM
  relative viability: 0.533
SW 900; first compound 0.03162 µM
  relative viability: 0.459
SW 900; first compound 0.1 µM
  relative viability: 0.452
SW 900; first compound 0.3162 µM
  relative viability: 0.475
SW 900; first compound 1 µM
  relative viability: 0.374
LK-2; first compound 0.01 µM
  relative viability: 0.316
LK-2; first compound 0.03162 µM
  relative viability: 0.358
LK-2; first compound 0.1 µM
  relative viability: 0.274
LK-2; first compound 0.3162 µM
  relative viability: 0.214
LK-2; first compound 1 µM
  relative viability: 0.169
NCI-H838; first compound 0.01 µM
  relative viability: 0.25
NCI-H838; first compound 0.03162 µM
  relative viability: 0.192
NCI-H838; first compound 0.1 µM
  relative viability: 0.177
NCI-H838; first compound 0.3162 µM
  relative viability: 0.177
NCI-H838; first compound 1 µM
  relative viability: 0.167
LU99A; first compound 0.01 µM
  relative viability: 0.204
LU99A; first compound 0.03162 µM
  relative viability: 0.165
LU99A; first compound 0.1 µM
  relative viability: 0.142
LU99A; first compound 0.3162 µM
  relative viability: 0.151
LU99A; first compound 1 µM
  relative viability: 0.109
NCI-H650; first compound 0.01 µM
  relative viability: 1.01
NCI-H650; first compound 0.03162 µM
  relative viability: 0.891
NCI-H650; first compound 0.1 µM
  relative viability: 0.968
NCI-H650; first compound 0.3162 µM
  relative viability: 0.821
NCI-H650; first compound 1 µM
  relative viability: 0.644
NCI-H1563; first compound 0.01 µM
  relative viability: 0.853
NCI-H1563; first compound 0.03162 µM
  relative viability: 0.997
NCI-H1563; first compound 0.1 µM
  relative viability: 0.84
NCI-H1563; first compound 0.3162 µM
  relative viability: 0.693
NCI-H1563; first compound 1 µM
  relative viability: 0.765
SW 1573; first compound 0.01 µM
  relative viability: 0.796
SW 1573; first compound 0.03162 µM
  relative viability: 0.778
SW 1573; first compound 0.1 µM
  relative viability: 0.717
SW 1573; first compound 0.3162 µM
  relative viability: 0.604
SW 1573; first compound 1 µM
  relative viability: 0.272
LCLC-103H; first compound 0.01 µM
  relative viability: 0.464
LCLC-103H; first compound 0.03162 µM
  relative viability: 0.498
LCLC-103H; first compound 0.1 µM
  relative viability: 0.45
LCLC-103H; first compound 0.3162 µM
  relative viability: 0.452
LCLC-103H; first compound 1 µM
  relative viability: 0.394
NCI-H460; first compound 0.01 µM
  relative viability: 0.0576
NCI-H460; first compound 0.03162 µM
  relative viability: 0.0605
NCI-H460; first compound 0.1 µM
  relative viability: 0.0567
NCI-H460; first compound 0.3162 µM
  relative viability: 0.0462
NCI-H460; first compound 1 µM
  relative viability: 0.0366
LCLC-97TM1; first compound 0.01 µM
  relative viability: 0.187
LCLC-97TM1; first compound 0.03162 µM
  relative viability: 0.165
LCLC-97TM1; first compound 0.1 µM
  relative viability: 0.17
LCLC-97TM1; first compound 0.3162 µM
  relative viability: 0.139
LCLC-97TM1; first compound 1 µM
  relative viability: 0.146
A-427; first compound 0.01 µM
  relative viability: 0.949
A-427; first compound 0.03162 µM
  relative viability: 0.94
A-427; first compound 0.1 µM
  relative viability: 1.11
A-427; first compound 0.3162 µM
  relative viability: 0.916
A-427; first compound 1 µM
  relative viability: 0.374
NCI-H1793; first compound 0.01 µM
  relative viability: 0.983
NCI-H1793; first compound 0.03162 µM
  relative viability: 0.956
NCI-H1793; first compound 0.1 µM
  relative viability: 0.954
NCI-H1793; first compound 0.3162 µM
  relative viability: 0.811
NCI-H1793; first compound 1 µM
  relative viability: 0.562
201T; first compound 0.01 µM
  relative viability: 0.34
201T; first compound 0.03162 µM
  relative viability: 0.293
201T; first compound 0.1 µM
  relative viability: 0.307
201T; first compound 0.3162 µM
  relative viability: 0.284
201T; first compound 1 µM
  relative viability: 0.296
